# Assay results as given in patent US7084239B1, “Cancer peptides of NY-ESO-1/CAG-3” (The United States of America as represented by the …, priority 1997, dated 2006).
# System: TIL1244
# Test: T cell recognition of peptide-pulsed 586EBV B cells by TIL1244
# Type: cell-based, human
# Settings: peptide pulsed onto 586EBV B cells (FIG. 6)
# Excerpt: FIGS. 6A–6H. CTL clones 2 and 14 recognize the NY-ESO-1 gene, but not the ESO10-53 peptide derived from the NY-ESO-1 protein. CTL clones 2, 14 and 5 recognized NY-ESO-1 when cotransfected with HLA-A31 cDNA into COS-7 (FIG. 6A, C, E and G). TIL1244, which recognized TRP-2 But not NY-ESO-1, was used as a specificity control. FIGS. 6B, D, F and H. CTL clones 2, 5, 14, and TIL1244 recognized 586mel. […] TIL1244 recognized the TRP197-205 peptide derived from TRP-2, 586EBV B cells alone or pulsed with the ORF3P peptide from an alternative reading frame of TRP1 were negative controls. 397mel is an HLA-A31-negative, NY-ESO-1-positive tumor line.
# DNA transfection and GM-CSF assay were done as previously described (Wang, R. F., P. F. Robbins, Y. Kawakami, X. Q. Kang, and S. A. Rosenberg, 1995, J. Exp. Med. 181:799–804). Briefly, […] of DNA carrying a different fragment and 50 ng of the HLA-A31 DNA were mixed with 2 μl of lipofectamine in 100 μl of serum-free DMEM for 15–45 min. The DNA/lipofectamine mixture was then added to the COS-7 (5×10^4) cells and incubated overnight. The following day, cells were washed twice with DMEM medium. […] After 18–24 h incubation, 100 μl of supernatant was collected and GM-CSF was measured in a standard ELISA assay (R+D Systems, Minneapolis, Minn.). […]
substance,measurement,value
"TRP197-205: peptide derived from TRP-2, recognized by TIL1244; specificity control (LLGPGRPYR; UniProt P40126 197-205, looked up, fragment)","Recognition by TIL1244, in words",recognized
